Results taken from US20260284078A1, “IMMUNOS[…] AND METHODS THEREOF” (priority 2023, published 2026).

Columns and labels:
[1] = Example 5 peripheral drug exposures in blood and plasma; assay type: in vivo, cynomolgus macaques; conditions: oral once per day (Dex 0.5 mg/kg, Tac 1 mg/kg, Pred 3 mg/kg); day 21, 4 hours post-dosing
Text: FIG. 9. Exemplary peripheral drug exposures in blood and plasma. […] The X axis of the graph denotes immunosuppression agent (dexamethasone, tacrolimus, or prednisolone); the Y axis of the graph depicts ng/ml of the immunosuppression agent as detected in blood for dexamethasone and prednisolone or in plasma for tacrolimus. Each circle represents data collected from one animal.

cynomolgus macaques [2] = experiment: Example 5 histopathological lesions in examined animals (Table 1); assay type: in vivo; conditions: rAAV 5×10^13 vg/kg IV + regimen, day 22 necropsy
Text: FIGS. 10A-10C. […] Columns represent average value for each treatment group. […] Treatment group is denoted at left. […] Magnification is indicated at top. […] Treatment groups of animals are indicated at top.

cynomolgus macaques [3] = experiment: Example 5 liver enzymes and total bilirubin in blood (Table 2); conditions: rAAV 5×10^13 vg/kg IV plus regimen
Text: Blood samples were collected from animals on days-7, 4, 8, 15, and 22 (wherein 0=day of rAAV administration) and subsequently analyzed for levels of certain liver enzymes and total bilirubin. […] (D) Level of total bilirubin (TBIL) was quantified. The X axis depicts day of study (wherein 0=day of rAAV administration); the Y axis depicts milligrams (mg) per deciliter (dL) of total bilirubin. Each graphed line corresponds to data collected from one animal. Legend at right identifies treatment group.
Reduction in liver toxicity upon treatment with rAAV by tested immunosuppression regimens was investigated through measurement of levels of liver enzymes and analysis of liver lesions at necropsy.

Which peripheral drug exposure [1] does the source give for `C[C@@H]1C[C@H]2[C@@H]3CCC4=CC(=O)C=C[C@]4(C)[C@@]3(F)[C@@H](O)C[C@]2(C)[C@@]1(O)C(=O)CO` [Dex, dexamethasone] here?
The peripheral drug exposure was “achieved targeted ranges of peripheral drug exposure”.

What does the source list for `C[C@]12C=CC(=O)C=C1CC[C@@H]1[C@@H]2[C@@H](O)C[C@@]2(C)[C@H]1CC[C@]2(O)C(=O)CO` [Pred, prednisolone]?
Dorsal root ganglia, cervical: Infiltrate, mononuclear cell (animals affected, total) (cynomolgus macaques [2]; 3 examined per group): (0); Dorsal root ganglia, cervical: Infiltrate, mononuclear cell, Minimal (animals) (cynomolgus macaques [2]; 3 examined per group): 0; Dorsal root ganglia, lumbar: Degeneration/necrosis, neuron (animals affected, total) (cynomolgus macaques [2]; 3 examined per group): (3); Dorsal root ganglia, lumbar: Degeneration/necrosis, neuron, Minimal (animals) (cynomolgus macaques [2]; 3 examined per group): 3; Dorsal root ganglia, lumbar: Infiltrate, mononuclear cell (animals affected, total) (cynomolgus macaques [2]; 3 examined per group): (3); Dorsal root ganglia, lumbar: Infiltrate, mononuclear cell, Minimal (animals) (cynomolgus macaques [2]; 3 examined per group): 3; Dorsal root ganglia, sacral: Degeneration/necrosis, neuron (animals affected, total) (cynomolgus macaques [2]; 3 examined per group): (1); Dorsal root ganglia, sacral: Degeneration/necrosis, neuron, Minimal (animals) (cynomolgus macaques [2]; 3 examined per group): 1; Dorsal root ganglia, sacral: Infiltrate, mononuclear cell (animals affected, total) (cynomolgus macaques [2]; 3 examined per group): (1); Dorsal root ganglia, sacral: Infiltrate, mononuclear cell, Mild (animals) (cynomolgus macaques [2]; 3 examined per group): 1; Dorsal root ganglia, sacral: Infiltrate, mononuclear cell, Minimal (animals) (cynomolgus macaques [2]; 3 examined per group): 0; Dorsal root ganglia, thoracic: Degeneration/necrosis, neuron (animals affected, total) (cynomolgus macaques [2]; 3 examined per group): (1); Dorsal root ganglia, thoracic: Degeneration/necrosis, neuron, Minimal (animals) (cynomolgus macaques [2]; 3 examined per group): 1; Dorsal root ganglia, thoracic: Infiltrate, mononuclear cell (animals affected, total) (cynomolgus macaques [2]; 3 examined per group): (2); Dorsal root ganglia, thoracic: Infiltrate, mononuclear cell, Minimal (animals) (cynomolgus macaques [2]; 3 examined per group): 2; Heart: Degeneration, myocardium (animals affected, total) (cynomolgus macaques [2]; 3 examined per group): (1); Heart: Degeneration, myocardium, Minimal (animals) (cynomolgus macaques [2]; 3 examined per group): 1; Heart: Infiltrate, mononuclear cell, adipose (animals affected, total) (cynomolgus macaques [2]; 3 examined per group): (3); Heart: Infiltrate, mononuclear cell, adipose, Minimal (animals) (cynomolgus macaques [2]; 3 examined per group): 3; Heart: Infiltrate, mononuclear cell, myocardium (animals affected, total) (cynomolgus macaques [2]; 3 examined per group): (2); Heart: Infiltrate, mononuclear cell, myocardium, Mild (animals) (cynomolgus macaques [2]; 3 examined per group): 1; Heart: Infiltrate, mononuclear cell, myocardium, Minimal (animals) (cynomolgus macaques [2]; 3 examined per group): 1; Sciatic nerve: Degeneration, nerve fiber (animals affected, total) (cynomolgus macaques [2]; 3 examined per group): (1); Sciatic nerve: Degeneration, nerve fiber, Minimal (animals) (cynomolgus macaques [2]; 3 examined per group): 1; Trigeminal ganglion: Degeneration/necrosis, neuron (animals affected, total) (cynomolgus macaques [2]; 3 examined per group): (2); Trigeminal ganglion: Degeneration/necrosis, neuron, Minimal (animals) (cynomolgus macaques [2]; 3 examined per group): 2; Trigeminal ganglion: Infiltrate, mononuclear cell (animals affected, total) (cynomolgus macaques [2]; 3 examined per group): (2); Trigeminal ganglion: Infiltrate, mononuclear cell, Minimal (animals) (cynomolgus macaques [2]; 3 examined per group): 2; Sympathetic ganglia, thoracic: Infiltrate, mononuclear cell (animals affected, total) (cynomolgus macaques [2]; examined: Dex/Tac 1, Pred 3): (2); Sympathetic ganglia, thoracic: Infiltrate, mononuclear cell, Minimal (animals) (cynomolgus macaques [2]; examined: Dex/Tac 1, Pred 3): 2; Sympathetic ganglia, cervical: Infiltrate, mononuclear cell (animals affected, total) (cynomolgus macaques [2]; examined: Dex/Tac 3, Pred 2): (1); Sympathetic ganglia, cervical: Infiltrate, mononuclear cell, Minimal (animals) (cynomolgus macaques [2]; examined: Dex/Tac 3, Pred 2): 1; peripheral drug exposure [1]: achieved targeted ranges of peripheral drug exposure; total bilirubin levels (cynomolgus macaques [3]): notable increases

For `C=CC[C@@H]1/C=C(\C)C[C@H](C)C[C@H](OC)[C@H]2O[C@@](O)(C(=O)C(=O)N3CCCC[C@H]3C(=O)O[C@H](/C(C)=C/[C@@H]3CC[C@@H](O)[C@H](OC)C3)[C@H](C)[C@@H](O)CC1=O)[C@H](C)C[C@@H]2OC` [Tac, tacrolimus], which peripheral drug exposure [1] is on record?
The peripheral drug exposure was “achieved targeted ranges of peripheral drug exposure”.
